Experimental data taken from US9012492B2, “Apocynin-lipoic acid conjugates and uses thereof” (priority 2011, dated 2015).
Like-named read-outs stand apart in the source and are kept apart here.

Key:
[1] = Stability in sodium phosphate buffer (HPLC); format: physicochemical; details: for stability in sodium phosphate buffer: 50 mM, HPLC; for half-life: buffer without microsomes and without NADPH; for half-life / % Metabolism in 30 minutes / CLintr (mL/min/g liver): matrix buffer (no microsomes, no NADPH)
Experimental: The stability of the compound of Formula (Ia) in a sodium phosphate buffer (50 mM, pH 7.4) was evaluated using HPLC. […] Area counts of apocynin and lipoid acid were found in 0 minute samples and were generally constant until the last time point measured (see: FIGS. 11-12 and Tables 5-6).

N27 neuronal cells = test: DNA fragmentation ELISA after hydrogen peroxide exposure of N27 neuronal cells; format: cell-based; details: pretreatment 100 μM
Experimental: Specifically, the effects of (Ia) on oxidative stress in N27 neuronal cells, a dopaminergic cell line were studied. […]
The cells were then lysed, and DNA fragmentation was determined by ELISA assay.

Sprague-Dawley rats = test: Infarct volume after permanent (6 h) middle cerebral artery occlusion; format: in vivo, rat; details: 0.1 or 1.0 mg/kg iv 30 min prior to 6 h permanent occlusion (no reperfusion)
Excerpt: The detailed methodology for permanent middle cerebral artery occlusion (MCAO) and transient (I/R) occlusion of the middle cerebral artery has been published previously.^46 Briefly, animals were placed in a David Kopf stereotaxic frame (Tujunga, Calif.), and the right middle cerebral artery (MCA) approached through a rostral-caudal incision of the skin and frontalis muscle at the approximate level of bregma. Blood flow through the MCA was impeded by the placement of surgical suture behind the MCA at three designated positions along the exposed vessel. […] The concentration of 0.1 mg/kg represents the optimal dose of the compound of Formula (Ia), as determined above, and 1.0 mg/kg represents a 10-fold higher concentration of the optimal dose, as the optimal dose of 0.1 mg/kg was not effective in producing neuroprotection. […] At the end of each experiment in which infarct volume was measured, animals were transcardially perfused with PBS (0.1 M; 200 ml), the brains were removed and sliced into 1-mm coronal sections using a rat brain matrix (Harvard Apparatus, Holliston, Mass.). […] Infarct volumes were calculated with the use of scanned digital images of each brain section. The infarct area for both sides of each brain section was calculated using a computer-assisted imaging system (Scion, Frederick, Md.). […]

## COc1cc(C(C)=O)ccc1OC(=O)CCCCC1CCSS1 (centres unmarked) [compound of Formula (Ia)]
Un-treated plasma, 0 h
  % Change with time: 100.00%
Un-treated plasma, <1 min
  % Change with time: 0.00%
Immediate extraction, no stabilizer
  % remaining in spiked plasma sample: ~0%
Plasma + Formic acid, 0 h
  % Change with time: 100.00%
Plasma + Formic acid, 10 min
  % Change with time: 2.00%
Plasma + Formic acid, <1 min
  % Change with time: 15.00%
Plasma + Sodium fluoride, 0 h
  % Change with time: 100.00%
Plasma + Sodium fluoride, <1 min
  % Change with time: 2.00%
rat/dog blood and plasma
  stability in biological matrix: unstable
With combination of DV and FA
  time stabilized in plasma: up to 4 h
[1]; 0.5 μM in sodium phosphate buffer (50 mM, pH 7.4), 0 min, Set-1
  % Remaining: 100%
[1]; 0.5 μM in sodium phosphate buffer (50 mM, pH 7.4), 3 min, Set-1
  % Remaining: 64%
[1]; 0.5 μM in sodium phosphate buffer (50 mM, pH 7.4), 6 min, Set-1
  % Remaining: 50%
[1]; 0.5 μM in sodium phosphate buffer (50 mM, pH 7.4), 9 min, Set-1
  % Remaining: 55%
[1]; 0.5 μM in sodium phosphate buffer (50 mM, pH 7.4), 12 min, Set-1
  % Remaining: 50%
[1]; 0.5 μM in sodium phosphate buffer (50 mM, pH 7.4), 15 min, Set-1
  % Remaining: 50%
[1]; 0.5 μM in sodium phosphate buffer (50 mM, pH 7.4), 18 min, Set-1
  % Remaining: 50%
[1]; 0.5 μM in sodium phosphate buffer (50 mM, pH 7.4), 21 min, Set-1
  % Remaining: 73%
[1]; 0.5 μM in sodium phosphate buffer (50 mM, pH 7.4), 27 min, Set-1
  % Remaining: 64%
[1]; 0.5 μM in sodium phosphate buffer (50 mM, pH 7.4), 30 min, Set-1
  % Remaining: 77%
[1]; 0.5 μM, pH 7.4
  stability in sodium phosphate buffer: stable
[1]; 10 μM in sodium phosphate buffer (50 mM, pH 7.4), 0 min, Set-1
  % Remaining: 100%
[1]; 10 μM in sodium phosphate buffer (50 mM, pH 7.4), 3 min, Set-1
  % Remaining: 83%
[1]; 10 μM in sodium phosphate buffer (50 mM, pH 7.4), 6 min, Set-1
  % Remaining: 73%
[1]; 10 μM in sodium phosphate buffer (50 mM, pH 7.4), 9 min, Set-1
  % Remaining: 83%
[1]; 10 μM in sodium phosphate buffer (50 mM, pH 7.4), 12 min, Set-1
  % Remaining: 73%
[1]; 10 μM in sodium phosphate buffer (50 mM, pH 7.4), 15 min, Set-1
  % Remaining: 74%
[1]; 10 μM in sodium phosphate buffer (50 mM, pH 7.4), 18 min, Set-1
  % Remaining: 71%
[1]; 10 μM in sodium phosphate buffer (50 mM, pH 7.4), 21 min, Set-1
  % Remaining: 76%
[1]; 10 μM in sodium phosphate buffer (50 mM, pH 7.4), 27 min, Set-1
  % Remaining: 57%
[1]; 10 μM in sodium phosphate buffer (50 mM, pH 7.4), 30 min, Set-1
  % Remaining: 79%
[1]; 10 μM, pH 7.4
  stability in sodium phosphate buffer: stable
[1]; DLM/HLM study
  half-life: 23 min
  % Metabolism in 30 minutes: 34%
  CLintr (mL/min/g liver): 3.2 mL/min/g liver
[1]; rat liver microsome study
  half-life: > 30 min
  % Metabolism in 30 minutes: 21%
  CLintr (mL/min/g liver): 2.3 mL/min/g liver
[1]; buffer, 0 h, 0.5 μM, pH 7.4
  % Remaining: 100%
  Apocynin area counts, % Remaining: 100%
  Lipoic acid area counts, % Remaining: 100%
[1]; buffer, 0 h, 10 μM, pH 7.4
  % Remaining: 100%
  Apocynin area counts, % Remaining: 100%
  Lipoic acid area counts, % Remaining: 100%
[1]; buffer, 0.05 h, 0.5 μM, pH 7.4
  % Remaining: 71%
  Apocynin area counts, % Remaining: 78%
  Lipoic acid area counts, % Remaining: 103%
[1]; buffer, 0.05 h, 10 μM, pH 7.4
  % Remaining: 92%
  Apocynin area counts, % Remaining: 96%
  Lipoic acid area counts, % Remaining: 100%
[1]; buffer, 0.1 h, 0.5 μM, pH 7.4
  % Remaining: 59%
  Apocynin area counts, % Remaining: 68%
  Lipoic acid area counts, % Remaining: 99%
[1]; buffer, 0.1 h, 10 μM, pH 7.4
  % Remaining: 80%
  Apocynin area counts, % Remaining: 91%
  Lipoic acid area counts, % Remaining: 105%
[1]; buffer, 0.15 h, 0.5 μM, pH 7.4
  % Remaining: 47%
  Apocynin area counts, % Remaining: 65%
  Lipoic acid area counts, % Remaining: 91%
[1]; buffer, 0.15 h, 10 μM, pH 7.4
  % Remaining: 87%
  Apocynin area counts, % Remaining: 94%
  Lipoic acid area counts, % Remaining: 113%
[1]; buffer, 0.2 h, 0.5 μM, pH 7.4
  % Remaining: 53%
  Apocynin area counts, % Remaining: 71%
  Lipoic acid area counts, % Remaining: 89%
[1]; buffer, 0.2 h, 10 μM, pH 7.4
  % Remaining: 76%
  Apocynin area counts, % Remaining: 95%
  Lipoic acid area counts, % Remaining: 118%
[1]; buffer, 0.25 h, 0.5 μM, pH 7.4
  % Remaining: 65%
  Apocynin area counts, % Remaining: 68%
  Lipoic acid area counts, % Remaining: 106%
[1]; buffer, 0.25 h, 10 μM, pH 7.4
  % Remaining: 72%
  Apocynin area counts, % Remaining: 86%
  Lipoic acid area counts, % Remaining: 114%
[1]; buffer, 0.3 h, 0.5 μM, pH 7.4
  % Remaining: 59%
  Apocynin area counts, % Remaining: 70%
  Lipoic acid area counts, % Remaining: 96%
[1]; buffer, 0.3 h, 10 μM, pH 7.4
  % Remaining: 71%
  Apocynin area counts, % Remaining: 80%
  Lipoic acid area counts, % Remaining: 121%
[1]; buffer, 0.35 h, 0.5 μM, pH 7.4
  % Remaining: 76%
  Apocynin area counts, % Remaining: 82%
  Lipoic acid area counts, % Remaining: 117%
[1]; buffer, 0.35 h, 10 μM, pH 7.4
  % Remaining: 69%
  Apocynin area counts, % Remaining: 82%
  Lipoic acid area counts, % Remaining: 127%
[1]; buffer, 0.45 h, 0.5 μM, pH 7.4
  % Remaining: 71%
  Apocynin area counts, % Remaining: 79%
  Lipoic acid area counts, % Remaining: 119%
[1]; buffer, 0.45 h, 10 μM, pH 7.4
  % Remaining: 64%
  Apocynin area counts, % Remaining: 80%
  Lipoic acid area counts, % Remaining: 134%
[1]; buffer, 0.5 h, 0.5 μM, pH 7.4
  % Remaining: 94%
  Apocynin area counts, % Remaining: 85%
  Lipoic acid area counts, % Remaining: 151%
[1]; buffer, 0.5 h, 10 μM, pH 7.4
  % Remaining: 71%
  Apocynin area counts, % Remaining: 78%
  Lipoic acid area counts, % Remaining: 141%
N27 neuronal cells
  DNA fragmentation induced by hydrogen peroxide reduced by: 73%
N27 neuronal cells; then hydrogen peroxide (1 mM), n = 4
  DNA cell fragmentation: 138 ± 20 percentage of control
Sprague-Dawley rats
  neuroprotection (infarct volume) in permanent MCAO: did not produce neuroprotection
